Reference: patent US20240400555A1 (Initial Therapeutics, Inc., priority 2023, published 2024)

System: HCT-116 Firefly-luciferase reporter cells
Test: Cellular c-MYC Reporter Assay
Assay type: cell-based
Settings: Homo sapiens; untitled table following Table 8a; HCT-116 Firefly-luciferase reporter cells, 24 h; read-out: pIC50 (converted)
Experimental: HCT-116 Firefly-luciferase reporter cells (BPS Bioscience) were seeded in 96-well tissue-culture treated sterile plates (Greiner Bio-One) at 5e4 cells/mL in 100 μL complete growth media (McCoy's 5A+10% FBS, +1% Pen-Strep, +1% G418). Cells were incubated at 37° C. with 5% CO2 for 4-6 h then treated with 3× compound solution in 50 μL complete growth media for a final volume of 150 μL per well with 0.2% DMSO. After 24 h incubation at 37° C. with 5% CO2, plates were allowed to equilibrate to RT for 20 min then developed by addition of 100 μL ONE-Glo Luciferase detection reagent (Promega), incubated at RT for 10 min. Luminescence was recorded using a SpectraMax i3x plate reader (Molecular Devices) and analyzed using Prism GraphPad 9 software.

| SMILES | IC50 [nM] |
| --- | --- |
| C#Cc1cccnc1N(C(=O)c1ccc(-n2nnc3cccnc32)cc1F)[C@@H]1CCCNC1 [Example 107, (R)-4-(3H-[1,2,3]triazolo[4,5-b]pyridin-3-yl)-N-(3-ethynylpyridin-2-yl)-2-fluoro-N-(piperidin-3-yl)benzamide] | 977 |
| C=C(C)c1cccnc1N(C(=O)c1ccc(-n2nnc3cccnc32)cc1F)[C@@H]1CCCNC1 [Example 108, (R)-4-(3H-[1,2,3]triazolo[4,5-b]pyridin-3-yl)-2-fluoro-N-(piperidin-3-yl)-N-(3-(prop-1-en-2-yl)pyridin-2-yl)benzamide] | 129 |
| Cn1cc(-c2ccc(C(=O)N(c3cc(/C=C/c4ccccc4)ccn3)[C@@H]3CCCNC3)cc2)nn1 [Example 109, (R,E)-4-(1-methyl-1H-1,2,3-triazol-4-yl)-N-(piperidin-3-yl)-N-(4-styrylpyridin-2-yl)benzamide] | > 10000 |
| Cn1cc(-c2ccc(C(=O)N(c3cc(-c4cc[nH]n4)ccn3)[C@@H]3CCCNC3)cc2)nn1 [Example 110, 4-(1-methyltriazol-4-yl)-N-[(3R)-3-piperidyl]-N-[4-(1H-pyrazol-3-yl)-2-pyridyl] benzamide] | > 10000 |
| Cc1cccc2ccnc(N(C(=O)c3ccc(-c4cn(C)nn4)cc3)[C@@H]3CCCNC3)c12 [Example 111, (R)-4-(1-methyl-1H-1,2,3-triazol-4-yl)-N-(8-methylisoquinolin-1-yl)-N-(piperidin-3-yl) benzamide] | 513 |
| Cn1cnc(-c2cccnc2N(C(=O)c2ccc(-n3nnc4cccnc43)cc2F)[C@@H]2CCCNC2)c1 [Example 112, (R)-4-(3H-[1,2,3]triazolo[4,5-b]pyridin-3-yl)-2-fluoro-N-(3-(1-methyl-1H-imidazol-4-yl)pyridin-2-yl)-N-(piperidin-3-yl)benzamide] | 380 |
| O=C(c1ccc(-n2nnc3cccnc32)cc1F)N(c1ncccc1C1=CCNC1)[C@@H]1CCCNC1 [Example 113, (R)-4-(3H-[1,2,3]triazolo[4,5-b]pyridin-3-yl)-N-(3-(2,5-dihydro-1H-pyrrol-3-yl)pyridin-2-yl)-2-fluoro-N-(piperidin-3-yl)benzamide] | 4270 |
| O=C(c1ccc(-n2nnc3cccnc32)cc1F)N(c1ncccc1-c1cnoc1)[C@@H]1CCCNC1 [Example 114, (R)-4-(3H-[1,2,3]triazolo[4,5-b]pyridin-3-yl)-2-fluoro-N-(3-(isoxazol-4-yl)pyridin-2-yl)-N-(piperidin-3-yl)benzamide] | 1120 |
| Cn1cc(-c2cccnc2N(C(=O)c2ccc(-n3nnc4cccnc43)cc2F)[C@@H]2CCCNC2)cn1 [Example 115, (R)-4-(3H-[1,2,3]triazolo[4,5-b]pyridin-3-yl)-2-fluoro-N-(3-(1-methyl-1H-pyrazol-4-yl)pyridin-2-yl)-N-(piperidin-3-yl)benzamide] | 550 |
| O=C(c1ccc(-n2nnc3cccnc32)cc1F)N(c1ncccc1-c1cnn(CCO)c1)[C@@H]1CCCNC1 [Example 116, (R)-4-(3H-[1,2,3]triazolo[4,5-b]pyridin-3-yl)-2-fluoro-N-(3-(1-(2-hydroxyethyl)-1H-pyrazol-4-yl)pyridin-2-yl)-N-(piperidin-3-yl)benzamide] | 2570 |
| COC(=O)c1ccc2c(N(C(=O)c3ccc(-n4nnc5cccnc54)cc3F)[C@@H]3CCCNC3)nccc2c1 [Example 117, methyl (R)-1-(4-(3H-[1,2,3]triazolo[4,5-b]pyridin-3-yl)-2-fluoro-N-(piperidin-3-yl)benzamido)isoquinoline-6-carboxylate] | 490 |
| O=C(O)c1ccc2c(N(C(=O)c3ccc(-n4nnc5cccnc54)cc3F)[C@@H]3CCCNC3)nccc2c1 [Example 118, (R)-1-(4-(3H-[1,2,3]triazolo[4,5-b]pyridin-3-yl)-2-fluoro-N-(piperidin-3-yl)benzamido)isoquinoline-6-carboxylic acid] | > 20000 |
| Cn1ncc2ccnc(N(C(=O)c3ccc(Nc4ncccn4)cc3F)[C@@H]3CCCNC3)c21 [Example 119, (R)-2-fluoro-N-(1-methyl-1H-pyrazolo[3,4-c]pyridin-7-yl)-N-(piperidin-3-yl)-4-(pyrimidin-2-ylamino)benzamide] | 1410 |
